Reference: ChEMBL document CHEMBL1201861, “Genomics of Drug Sensitity in Cancer screening data, Wellcome Trust Sanger Institute”

Tests used:
Assay in all cases: cells
CTB-1 = type: functional, cell-based, Homo sapiens; conditions: Homo sapiens, CTB-1
Description: SANGER: Inhibition of human CTB-1 cell growth in a cell viability assay.

DB = type: functional, cell-based, Homo sapiens; conditions: Homo sapiens, DB
Description: SANGER: Inhibition of human DB cell growth in a cell viability assay.

EKVX = type: functional, cell-based, Homo sapiens; conditions: Homo sapiens, EKVX
Description: SANGER: Inhibition of human EKVX cell growth in a cell viability assay.

EM-2 = type: functional, cell-based, Homo sapiens; conditions: Homo sapiens, EM-2
Description: SANGER: Inhibition of human EM-2 cell growth in a cell viability assay.

ES4 = type: functional, cell-based, Homo sapiens; conditions: Homo sapiens, ES4
Description: SANGER: Inhibition of human ES4 cell growth in a cell viability assay.

ES5 = type: functional, cell-based, Homo sapiens; conditions: Homo sapiens, ES5
Description: SANGER: Inhibition of human ES5 cell growth in a cell viability assay.

ETK-1 = type: functional, cell-based, Homo sapiens; conditions: Homo sapiens, ETK-1
Description: SANGER: Inhibition of human ETK-1 cell growth in a cell viability assay.

EW-3 = type: functional, cell-based, Homo sapiens; conditions: Homo sapiens, EW-3
Description: SANGER: Inhibition of human EW-3 cell growth in a cell viability assay.

GI-ME-N = type: functional, cell-based, Homo sapiens; conditions: Homo sapiens, GI-ME-N
Description: SANGER: Inhibition of human GI-ME-N cell growth in a cell viability assay.

GOTO = type: functional, cell-based, Homo sapiens; conditions: Homo sapiens, GOTO
Description: SANGER: Inhibition of human GOTO cell growth in a cell viability assay.

HCC2218 = type: functional, cell-based, Homo sapiens; conditions: Homo sapiens, HCC2218
Description: SANGER: Inhibition of human HCC2218 cell growth in a cell viability assay.

HL-60 = type: functional, cell-based, Homo sapiens; conditions: Homo sapiens, HL-60
Description: SANGER: Inhibition of human HL-60 cell growth in a cell viability assay.

HT-144 = type: functional, cell-based, Homo sapiens; conditions: Homo sapiens, HT-144
Description: SANGER: Inhibition of human HT-144 cell growth in a cell viability assay.

IST-MEL1 = type: functional, cell-based, Homo sapiens; conditions: Homo sapiens, IST-MEL1
Description: SANGER: Inhibition of human IST-MEL1 cell growth in a cell viability assay.

JVM-2 = type: functional, cell-based, Homo sapiens; conditions: Homo sapiens, JVM-2
Description: SANGER: Inhibition of human JVM-2 cell growth in a cell viability assay.

K562 = type: functional, cell-based, Homo sapiens; conditions: Homo sapiens, K562
Description: SANGER: Inhibition of human K-562 cell growth in a cell viability assay.

KALS-1 = type: functional, cell-based, Homo sapiens; conditions: Homo sapiens, KALS-1; read-out: IC50
Description: SANGER: Inhibition of human KALS-1 cell growth in a cell viability assay.

KGN = type: functional, cell-based, Homo sapiens; conditions: Homo sapiens, KGN
Description: SANGER: Inhibition of human KGN cell growth in a cell viability assay.

KNS-42 = type: functional, cell-based; conditions: Homo sapiens
Description: SANGER: Inhibition of human KNS-42 cell growth in a cell viability assay.

KP-N-YS = type: functional, cell-based, Homo sapiens; conditions: Homo sapiens, KP-N-YS
Description: SANGER: Inhibition of human KP-N-YS cell growth in a cell viability assay.

KS-1 = type: functional, cell-based; conditions: Homo sapiens
Description: SANGER: Inhibition of human KS-1 cell growth in a cell viability assay.

KU812 cell line = type: functional, cell-based, Homo sapiens; conditions: Homo sapiens, KU812
Description: SANGER: Inhibition of human KU812 cell growth in a cell viability assay.

KURAMOCHI = type: functional, cell-based, Homo sapiens; conditions: Homo sapiens, KURAMOCHI
Description: SANGER: Inhibition of human KURAMOCHI cell growth in a cell viability assay.

LB831-BLC = type: functional, cell-based, Homo sapiens; conditions: Homo sapiens, LB831-BLC
Description: SANGER: Inhibition of human LB831-BLC cell growth in a cell viability assay.

LU-139 = type: functional, cell-based, Homo sapiens; conditions: Homo sapiens, LU-139
Description: SANGER: Inhibition of human LU-139 cell growth in a cell viability assay.

MC116 = type: functional, cell-based, Homo sapiens; conditions: Homo sapiens, MC116
Description: SANGER: Inhibition of human MC116 cell growth in a cell viability assay.

MN-60 = type: functional, cell-based, Homo sapiens; conditions: Homo sapiens, MN-60
Description: SANGER: Inhibition of human MN-60 cell growth in a cell viability assay.

MSTO-211H = type: functional, cell-based, Homo sapiens; conditions: Homo sapiens, MSTO-211H
Description: SANGER: Inhibition of human MSTO-211H cell growth in a cell viability assay.

MZ1-PC = type: functional, cell-based, Homo sapiens; conditions: Homo sapiens, MZ1-PC
Description: SANGER: Inhibition of human MZ1-PC cell growth in a cell viability assay.

Mo = type: functional, cell-based, Homo sapiens; conditions: Homo sapiens, Mo
Description: SANGER: Inhibition of human Mo-T cell growth in a cell viability assay.

NCI-H1650 = type: functional, cell-based, Homo sapiens; conditions: Homo sapiens, NCI-H1650
Description: SANGER: Inhibition of human NCI-H1650 cell growth in a cell viability assay.

NCI-H2126 = type: functional, cell-based, Homo sapiens; conditions: Homo sapiens, NCI-H2126
Description: SANGER: Inhibition of human NCI-H2126 cell growth in a cell viability assay.

NCI-H446 = type: functional, cell-based, Homo sapiens; conditions: Homo sapiens, NCI-H446
Description: SANGER: Inhibition of human NCI-H446 cell growth in a cell viability assay.

NOS-1 = type: functional, cell-based, Homo sapiens; conditions: Homo sapiens, NOS-1
Description: SANGER: Inhibition of human NOS-1 cell growth in a cell viability assay.

ONS-76 = type: functional, cell-based, Homo sapiens; conditions: Homo sapiens, ONS-76
Description: SANGER: Inhibition of human ONS-76 cell growth in a cell viability assay.

RCC10RGB = type: functional, cell-based, Homo sapiens; conditions: Homo sapiens, RCC10RGB
Description: SANGER: Inhibition of human RCC10RGB cell growth in a cell viability assay.

RPMI-8866 = type: functional, cell-based, Homo sapiens; conditions: Homo sapiens, RPMI-8866
Description: SANGER: Inhibition of human RPMI-8866 cell growth in a cell viability assay.

RXF 393 = type: functional, cell-based, Homo sapiens; conditions: Homo sapiens, RXF 393
Description: SANGER: Inhibition of human RXF393 cell growth in a cell viability assay.

SCC-15 = type: functional, cell-based, Homo sapiens; conditions: Homo sapiens, SCC-15
Description: SANGER: Inhibition of human SCC-15 cell growth in a cell viability assay.

SF-539 = type: functional, cell-based, Homo sapiens; conditions: Homo sapiens, SF-539
Description: SANGER: Inhibition of human SF539 cell growth in a cell viability assay.

SH-4 = type: functional, cell-based; conditions: Homo sapiens
Description: SANGER: Inhibition of human SH-4 cell growth in a cell viability assay.

SK-MEL-1 = type: functional, cell-based, Homo sapiens; conditions: Homo sapiens, SK-MEL-1
Description: SANGER: Inhibition of human SK-MEL-1 cell growth in a cell viability assay.

SW982 = type: functional, cell-based; conditions: Homo sapiens
Description: SANGER: Inhibition of human SW982 cell growth in a cell viability assay.

697 = type: functional, cell-based, Homo sapiens; conditions: Homo sapiens
Description: SANGER: Inhibition of human 697 cell growth in a cell viability assay.

BB49-HNC = type: functional, cell-based, Homo sapiens; conditions: Homo sapiens, BB49-HNC
Description: SANGER: Inhibition of human BB49-HNC cell growth in a cell viability assay.

TE-11 = type: functional, cell-based; conditions: Homo sapiens
Description: SANGER: Inhibition of human TE-11 cell growth in a cell viability assay.

TGBC1TKB = type: functional, cell-based, Homo sapiens; conditions: Homo sapiens, TGBC1TKB
Description: SANGER: Inhibition of human TGBC1TKB cell growth in a cell viability assay.

TGBC24TKB = type: functional, cell-based; conditions: Homo sapiens
Description: SANGER: Inhibition of human TGBC24TKB cell growth in a cell viability assay.

VA-ES-BJ = type: functional, cell-based, Homo sapiens; conditions: Homo sapiens, VA-ES-BJ
Description: SANGER: Inhibition of human VA-ES-BJ cell growth in a cell viability assay.

no-10 = type: functional, cell-based, Homo sapiens; conditions: Homo sapiens
Description: SANGER: Inhibition of human no-10 cell growth in a cell viability assay.

## CC1=C(/C=C/C(C)=C/C=C/C(C)=C/C(=O)O)C(C)(C)CCC1 [TRETINOIN]
CTB-1
  IC50: 1.6 µM
DB
  IC50: 4.77 µM
EKVX
  IC50: > 10 µM
EM-2
  IC50: 5.33 µM
ES4
  IC50: > 10 µM
ES5
  IC50: > 10 µM
ETK-1
  IC50: > 10 µM
EW-3
  IC50: 0.48 µM
GI-ME-N
  IC50: > 10 µM
GOTO
  IC50: > 10 µM
HCC2218
  IC50: > 10 µM
HL-60
  IC50: 0.285 µM
HT-144
  IC50: > 10 µM
IST-MEL1
  IC50: > 10 µM
JVM-2
  IC50: 1.17 µM
K562
  IC50: > 10 µM
KALS-1
  IC50: > 10 µM
KGN
  IC50: > 10 µM
KNS-42
  IC50: > 10 µM
KP-N-YS
  IC50: > 10 µM
KS-1
  IC50: > 10 µM
KU812 cell line
  IC50: 0.536 µM
KURAMOCHI
  IC50: > 10 µM
LB831-BLC
  IC50: > 10 µM
LU-139
  IC50: > 10 µM
MC116
  IC50: > 10 µM
MN-60
  IC50: > 10 µM
MSTO-211H
  IC50: > 10 µM
MZ1-PC
  IC50: > 10 µM
Mo
  IC50: > 10 µM
NCI-H1650
  IC50: > 10 µM
NCI-H2126
  IC50: > 10 µM
NCI-H446
  IC50: > 10 µM
NOS-1
  IC50: > 10 µM
ONS-76
  IC50: > 10 µM
RCC10RGB
  IC50: > 10 µM
RPMI-8866
  IC50: > 10 µM
RXF 393
  IC50: > 10 µM
SCC-15
  IC50: 9.35 µM
SF-539
  IC50: > 10 µM
SH-4
  IC50: > 10 µM
SK-MEL-1
  IC50: > 10 µM
SW982
  IC50: > 10 µM
697
  IC50: > 10 µM
BB49-HNC
  IC50: > 10 µM
TE-11
  IC50: > 10 µM
TGBC1TKB
  IC50: > 10 µM
TGBC24TKB
  IC50: > 10 µM
VA-ES-BJ
  IC50: > 10 µM
no-10
  IC50: > 10 µM

## CO[C@@H]1[C@H](N(C)C(=O)c2ccccc2)C[C@H]2O[C@]1(C)n1c3ccccc3c3c4c(c5c6ccccc6n2c5c31)C(=O)NC4 [MIDOSTAURIN]
ETK-1
  IC50: 0.377 µM
NOS-1
  IC50: > 0.512 µM
SCC-15
  IC50: > 0.512 µM
TGBC1TKB
  IC50: > 0.512 µM
